In one data set the test system is HepG2 liver cancer cells. The data set is described as follows: MTT cytotoxicity assay, HepG2. To be noted: mean ± SD of three experiments, NA = no or negligible activity in initial crystal violet screening. Type of data set: cell-based. The method, then: (§1) The cytotoxic activity of the new synthesized compounds was tested in different mammalian cancer cells, breast cancer (+ve ER) (MCF-7), breast cancer (−ve ER) (MDA-MB-231), tongue (oral cancer) (SAS), prostate cancer (PC-3), colorectal cancer (HCT-116) and hepatocellular carcinoma (HuH-7 and HepG-2). The cell lines were obtained from the American Type Culture Collection (ATCC). The cells were cultivated at 37 °C and 5% CO2 in DMEM (Lonza) medium supplemented with 10% fetal bovine serum (Lonza), 100 IU/mLpenicillin and 100 µg/mL streptomycin (Lonza). Cisplatin was used as a positive control and was obtained from Sigma-Aldrich. The synthesized compounds were solubilized in DMSO and stored at −20 °C. For the initial screening, 0.5% crystal violet was used. The viability of the cells were determined by using the MTT reagent.
(§2) “The cells were seeded in a 96-well plate and serial dilutions of the tested compounds or cisplatin was added after overnight incubation of the cells at 37 °C and 5% CO2. DMSO was used as a negative control (0.1%). After that, MTT (5 mg/mL PBS) was added after 48 hours of incubation. The formazan crystals were solubilized by the acidified SDS solution. The absorbance was recorded at 570 nm by Biotech ELx-800™ plate reader (Winooski, VT, USA). The viability assay was performed 3 times and the standard deviation was determined (±). IC50 was calculated as the concentration that causes 50% inhibition of cell growth. The selectivity index was calculated as previously reported” [26, 27].

For a further data set, the system named is HuH-7 liver cancer cells. The data set is described as follows: MTT cytotoxicity assay, HuH-7. Type of data set: cell-based. To be noted: mean ± SD of three experiments, NA = no or negligible activity in initial crystal violet screening. The method, then: as §1
(§3) “The cells were seeded in a 96-well plate and serial dilutions of the tested compounds or cisplatin was added after overnight incubation of the cells at 37 °C and 5% CO2. DMSO was used as a negative control (0.1%). After that, MTT (5 mg/mL PBS) was added after 48 hours of incubation. […] The absorbance was recorded at 570 nm by Biotech ELx-800™ plate reader (Winooski, VT, USA). The viability assay was performed 3 times and the standard deviation was determined (±). […] The selectivity index was calculated as previously reported” [26, 27].

Data set [1] deals with SAS tongue carcinoma (oral cancer) cells. Description: MTT cytotoxicity assay, SAS. Type of data set: cell-based. To be noted: 48 h, mean ± SD of three experiments, NA = no or negligible activity in initial crystal violet screening. The method, then:
as §1, §2

The subject of data set [2] is MCF-7 breast cancer (+ve ER) cells. The data set is described as follows: MTT cytotoxicity assay, MCF-7. To be noted: mean ± SD of three experiments, NA = no or negligible activity in initial crystal violet screening. In kind it is cell-based. The procedure: as §1, §2
Data set [3] deals with MDA-MB-231 breast cancer (−ve ER) cells. Description: MTT cytotoxicity assay, MDA-MB-231. Type of data set: cell-based. To be noted: mean ± SD of three experiments, NA = no or negligible activity in initial crystal violet screening. The method, then:
as §1, §2

The subject of data set [4] is HCT-116 colorectal cancer cells. Description: MTT cytotoxicity assay, HCT-116. In kind it is cell-based. To be noted: mean ± SD of three experiments, NA = no or negligible activity in initial crystal violet screening, read-out: IC50 Colon HCT-116. The method, then: as §1, §3
The test system of data set [5] is PC-3 prostate cancer cells. The data set is described as follows: MTT cytotoxicity assay, PC-3. In kind it is cell-based. To be noted: 48 h, mean ± SD of three experiments, NA = no or negligible activity in initial crystal violet screening. The procedure: as §1, §2
In data set [6] the test system is seven cancer cell lines (MCF-7, MDA-MB-231, SAS, PC-3, HCT-116, HuH-7, HepG2). Description: Anticancer screening against the panel of seven cancer cell lines (crystal violet initial screening). Type of data set: cell-based. To be noted: concentration of 50 μM. The procedure: To evaluate the anticancer activity of the 13 newly synthesized compounds, we screened their activities at a concentration of 50 μM against seven cancer cell lines, including breast cancer (positive [MCF-7] and negative [MDA-MB-231] for estrogen receptor expression), tongue carcinoma (SAS), prostate cancer (PC-3), colorectal cancer (HCT-116) and liver cancer (HuH-7 and HepG2) cell lines. […] The 3-(4,5-dimethylthiazol-2-yl)-2,5-diphenyltetrazolium bromide (MTT) assay was performed to determine the concentration of the active compounds needed to kill 50% of cells.
as §1

Read-outs that look alike come from different tables or passages of the source. Where only a bound is given, the exact number is not on record here.

Take `N.N.[Cl][Pt][Cl]` [Cisplatin, reference compound]: the IC50 in the data set on HepG2 liver cancer cells (48 h) amounted to 10 ± 0.65 µM; in the data set with HuH-7 liver cancer cells (48 h) it was 14.7 ± 0.5 µM; in [1] it was 4.5 ± 0.34 µM; in data set [2] (48 h), 9 ± 2.43 µM; in data set [3] (48 h), 15 ± 0.71 µM; in data set [4] (48 h) it was 8 ± 0.76 µM. The compound further displayed a half-maximal inhibitory concentration (IC50) in data set [5] of 12 ± 1.25 µM.
As for `O=C1CC(c2ccccc2)C(C(=O)Nc2ccccn2)(C(=O)Nc2ccccn2)C(c2ccccc2)C1` (stereo not drawn) [Compound 3a, 4-Oxo-2,6-diphenyl-N,N′-di(pyridin-2-yl)cyclohexane-1,1-dicarboxamide], the melting point was 248 to 249 °C.
Compound `Cc1ccc(C2CC(=O)CC(c3ccc(C)cc3)C2(C(=O)Nc2ccc(Cl)cn2)C(=O)Nc2ccc(Cl)cn2)cc1` (stereo not drawn) [Compound 3b, N,N′-bis(5-Chloropyridin-2-yl)-4-oxo-2,6-di-p-tolylcyclohexane-1,1-dicarboxamide] showed a melting point of 145 to 146 °C.
In turn, `O=C1CC(c2ccc(Cl)cc2)C(C(=O)Nc2ccccn2)(C(=O)Nc2ccccn2)C(c2ccc(Cl)cc2)C1` (stereo not drawn) [Compound 3c, 2,6-bis(4-Chlorophenyl)-4-oxo-N,N′-di(pyridin-2-yl)cyclohexane-1,1-dicarboxamide] showed a melting point of 231 to 232 °C. This compound also had an IC50 in the data set on HepG2 liver cancer cells (Homo sapiens, HepG2, 48 h) of 8 ± 0.89 µM. This compound displayed an IC50 in data set [1] of 15 ± 1.3 µM. In data set [2] (Homo sapiens, MCF7, 48 h), this compound showed an IC50 of 10 ± 0.62 µM. The compound also showed an IC50 in data set [3] (Homo sapiens, MDA-MB-231, 48 h) of 7 ± 1.12 µM. For the same compound, the “anticancer activity in initial screening” value in data set [6] is reported as “showed different levels of anticancer activities”. The same compound gave an IC50 in [5] of 25 ± 1.42 µM.
In the case of `O=C1CC(c2ccc(Cl)cc2Cl)C(C(=O)Nc2ccccn2)(C(=O)Nc2ccccn2)C(c2ccc(Cl)cc2Cl)C1` (stereo not drawn) [Compound 3d, 2,6-bis(2,4-Dichlorophenyl)-4-oxo-N,N′-di(pyridin-2-yl)cyclohexane-1,1-dicarboxamide], the melting point was 210 to 211 °C. Also, the IC50 in the data set on HepG2 liver cancer cells (Homo sapiens, HepG2, 48 h) was > 50 µM. Moreover, the IC50 in data set [2] (Homo sapiens, MCF7, 48 h) was > 50 µM. The compound also returned an IC50 in data set [3] (Homo sapiens, MDA-MB-231, 48 h) of 18 ± 0.87 µM. Also, the “anticancer activity in initial screening” value in data set [6] is “showed different levels of anticancer activities”.
As for `O=C1CC(c2ccc(Br)cc2)C(C(=O)Nc2ccccn2)(C(=O)Nc2ccccn2)C(c2ccc(Br)cc2)C1` (stereo not drawn) [Compound 3e, 2,6-bis(4-Bromorophenyl)-4-oxo-N,N′-di(pyridin-2-yl)cyclohexane-1,1-dicarboxamide], the IC50 was 8 ± 0.96 µM in the data set on HepG2 liver cancer cells (48 h), 12 ± 0.54 µM in data set [2] (48 h) and 5 ± 0.5 µM in data set [3] (48 h). Further, in data set [6], the “anticancer activity in initial screening” value was “showed different levels of anticancer activities”.
`O=C1CC(c2cccc([N+](=O)[O-])c2)C(C(=O)Nc2ccc(Cl)cn2)(C(=O)Nc2ccc(Cl)cn2)C(c2cccc([N+](=O)[O-])c2)C1` (stereo not drawn) [Compound 3f, N,N′-bis(5-Chloropyridin-2-yl)-2,6-bis(3-nitrophenyl)-4-oxocyclohexane-1,1-dicarboxamide]: the melting point fell in the range of 174 to 175 °C.
Consider `COc1ccc(C2CC(=O)CC(c3ccc(OC)cc3)C2(C(=O)Nc2ccc(Cl)cn2)C(=O)Nc2ccc(Cl)cn2)cc1` (stereo not drawn) [Compound 3g, N,N′-bis(5-Chloropyridin-2-yl)-2,6-bis(4-methoxyphenyl)-4-oxocyclohexane-1,1-dicarboxamide], for which the melting point fell in the range of 203 to 204 °C.
Consider `O=C1CC(c2ccc3ccccc3c2)C(C(=O)Nc2ccc(Cl)cn2)(C(=O)Nc2ccc(Cl)cn2)C(c2ccc3ccccc3c2)C1` (stereo not drawn) [Compound 3h, N,N′-bis(5-Chloropyridin-2-yl)-2,6-di(naphthalen-2-yl)-4-oxocyclohexane-1,1-dicarboxamide], for which the melting point lay within 114 to 115 °C.
`O=C1CC(c2cccs2)C(C(=O)Nc2ccc(Cl)cn2)(C(=O)Nc2ccc(Cl)cn2)C(c2cccs2)C1` (stereo not drawn) [Compound 3i, N,N′-bis(5-Chloropyridin-2-yl)-4-oxo-2,6-di(thiophen-2-yl)cyclohexane-1,1-dicarboxamide] gave a melting point of 165 to 166 °C.
With `O=C1CC(c2ccco2)C(C(=O)Nc2ccc(Cl)cn2)(C(=O)Nc2ccc(Cl)cn2)C(c2ccco2)C1` (stereo not drawn) [Compound 3j, N,N′-bis(5-Chloropyridin-2-yl)-2,6-di(furan-2-yl)-4-oxocyclohexane-1,1-dicarboxamide], the melting point fell in the range of 160 to 161 °C. In the data set with HepG2 liver cancer cells (Homo sapiens, HepG2, 48 h), the IC50 is > 50 µM. Moreover, half-maximal inhibition in data set [2] (Homo sapiens, MCF7, 48 h) (IC50) was put at 50 ± 0.78 µM. Besides, half-maximal inhibition in data set [3] (Homo sapiens, MDA-MB-231, 48 h) (IC50) was put at 45 ± 3 µM.
In turn, `O=C1CC(c2cccc(Br)c2)C(C(=O)Nc2ccc(Cl)cn2)(C(=O)Nc2ccc(Cl)cn2)C(c2cccc(Br)c2)C1` (stereo not drawn) [Compound 3k, 2,6-bis(3-Bromophenyl)-N,N′-bis(5-chloropyridin-2-yl)-4-oxocyclohexane-1,1-dicarboxamide] showed a melting point of 213 to 214 °C. Besides, the “anticancer activity in initial screening” value in data set [6] was “showed different levels of anticancer activities”.
`O=C1CC(c2ccc(C(F)(F)F)cc2)C(C(=O)Nc2ccc(Cl)cn2)(C(=O)Nc2ccc(Cl)cn2)C(c2ccc(C(F)(F)F)cc2)C1` (stereo not drawn) [Compound 3l, N,N′-bis(5-Chloropyridin-2-yl)-4-oxo-2,6-bis(4-(trifluoromethyl)phenyl)cyclohex-ane-1,1-dicarboxamide] yielded a melting point of 138 to 139 °C. The same compound yielded a half-maximal inhibitory concentration (IC50) with HepG2 liver cancer cells (Homo sapiens, HepG2, 48 h) of 25 ± 0.38 µM. In the data set with HuH-7 liver cancer cells (Homo sapiens, Huh-7, 48 h), this compound had an IC50 of 4.5 ± 0.3 µM. In addition, the IC50 in [1] was determined as 9 ± 0.38 µM. In addition, in data set [2] (Homo sapiens, MCF7, 48 h), half-maximal inhibition (IC50) required 18 ± 1.71 µM. Moreover, it took 5 ± 0.25 µM to reach half-maximal inhibition in data set [3] (Homo sapiens, MDA-MB-231, 48 h) (IC50). Moreover, the “anticancer activity in initial screening” value in data set [6] is “showed different levels of anticancer activities”. For the same compound, the half-inhibitory concentration (IC50) in data set [4] (Homo sapiens, HCT-116, 48 h) came out at 6 ± 0.78 µM. The IC50 in data set [5] was > 50 µM.
In turn, `O=C1CC(c2ccc(F)cc2)C(C(=O)Nc2ccccn2)(C(=O)Nc2ccccn2)C(c2ccc(F)cc2)C1` (stereo not drawn) [Compound 3m, 2,6-bis(4-Fluorophenyl)-4-oxo-N,N′-di(pyridin-2-yl)cyclohexane-1,1-dicarboxamide] returned a melting point of 245 to 246 °C.

Source of the values: publication PMC6480224, “Synthesis of Pyridine-Dicarboxamide-Cyclohexanone Derivatives: Anticancer and α-Glucosidase Inhibitory Activities and In Silico Study” (Molecules, 2019).
